These results are taken from US20230226036A1, “ARIMOCLOMOL FOR TREATING GAUCHER DISEASE” (ORPHAZYME A/S, priority 2020, published 2023).

Entries after “also recorded” stand apart in the source; their conditions may differ.

For series [1] the following is noted: background statement; cited from earlier work.
In a further series the test system is liver size. In words: Liver size by ultrasound, phase 2 trial in Gaucher disease type 1 or 3. The class given is in vivo, human. To be noted: 6 months, 300/600/1200 mg/day, dose-trend effect p<0.05, FIG. 3. The protocol:
(§1) Eligible GD1 and GD3 patients were randomised into 4 groups on a 1:1:1:1 basis to receive arimoclomol 300 mg/day, arimoclomol 600 mg/day, arimoclomol 1200 mg/day, or placebo treatment (3 times daily [t.i.d] dosing).
(§2) The imaging efficacy endpoint consisted of the change in the size (centimetres) of the liver and spleen (assessed by ultrasound) at 6 months and bi-annually until trial end. Clinical GD severity endpoints (all patients): • Gaucher disease Type 1 Disease Severity Scoring System (GD1-DS3) • Modified Severity Scoring Tool (mSST)
(§3) Secondary efficacy endpoints, including change in weight and height, change in liver size, change in spleen size, and change in biomarkers (blood and CSF) relative to baseline (where appropriate) were analysed using an ANCOVA model with treatment group (dose actually received at Visit 3 following possible dosing adjustment based on PK assessment at Visit 2, or placebo) and corresponding baseline value as covariate. For the biomarker analysis, appropriate data transformation was conducted before statistical analysis, if necessary.

The next series deals with Gaucher's disease type 1. The experiment in a line: Clinical GD1 severity score (GD1-DS3), phase 2 trial in Gaucher disease. In kind it is in vivo, human. To be noted: 6 months, statistical significance not achieved. The method, then:
Eligible GD1 and GD3 patients were randomised into 4 groups on a 1:1:1:1 basis to receive arimoclomol 300 mg/day, arimoclomol 600 mg/day, arimoclomol 1200 mg/day, or placebo treatment (3 times daily [t.i.d] dosing). The imaging efficacy endpoint consisted of the change in the size (centimetres) of the liver and spleen (assessed by ultrasound) at 6 months and bi-annually until trial end. Clinical GD severity endpoints (all patients): • Gaucher disease Type 1 Disease Severity Scoring System (GD1-DS3) • Modified Severity Scoring Tool (mSST)

Series [2] concerns glycosylsphingosine (lyso-Gb1). In words: Plasma glycosylsphingosine (lyso-Gb1), phase 2 trial in Gaucher disease. To be noted: after 6 months, statistical significance not achieved, FIG. 6. The class given is in vivo, human. The method, then: as §1
(§4) The exploratory biomarker endpoints, as measured in the blood, included: • Change* in plasma glucosylsphingosine (GlcSph) levels at 6 months and every 6 months until trial end. • Change* in haemoglobin, ferritin, and platelet levels at 6 months and every 6 months until trial end. • Change* in GBA enzyme activity (leukocytes) at 6 months and every 6 months until trial end. • Change* in serum macrophage inflammatory protein-1b (MIP-1P; cytokine for bone involvement) at 6 months and every 6 months until trial end.
as §3

The next series deals with spleen size. In words: Spleen size by ultrasound, phase 2 trial in Gaucher disease type 1 or 3. In kind it is in vivo, human. To be noted: 6 months, 300/600/1200 mg/day, dose trend analysis p<0.10, FIG. 4. The protocol:
as §1, §2, §3

Series [3] is described as follows: Plasma exposure (AUC0-8) estimated by population PK modelling in GD1/GD3 patients. In kind it is in vivo, human. The settings on record: 300, 600, 1200 mg/day t.i.d. oral (weight-adjusted), FIG. 1. The source says:
All patients underwent an arimoclomol single-dose (100-mg single dose for the 300-mg/day treatment group, 200-mg single dose for the arimoclomol 600-mg/day treatment group, 400-mg single dose for the arimoclomol 1200-mg/day treatment group, or corresponding dose per kg for paediatric patients prior to the effective date of this protocol. Single dose pharmacokinetics (PK) was done with corresponding dose per kg for all patients randomised after the effective date of this protocol) pharmacokinetic (PK) evaluation at Visit 2 following randomization to confirm the suitability (in terms of target investigational medicinal product (AUC0-8—area under the curve [AUC] from time 0 to 8 hours [AUC0-8]) of the selected doses in the trial. Following the single dose, blood samples for PK analysis were collected at predose, and 0.5, 1, 2, 4, and 8 hours postdose. […] The corresponding data was evaluated by an independent assessor to verify the AUC0-8. […]
In the event that the AUC was above the target, or an unexpected profile which could potentially impact the safety of the patient was obtained, and the patient required a dose reduction, the patient was dispensed a reduced dose of IMP (blinded) at Visit 3. […] Additional blood samples for quantitative population PK analysis of arimoclomol were collected predose and at 0.5 hours postdose at Visit 5, and predose and 1.5 hours postdose at Visit 7. […]

The subject of series [4] is serum chitotriosidase activity. The experiment in a line: Serum chitotriosidase activity, phase 2 trial in Gaucher disease type 1 or 3 (primary endpoint). The class given is in vivo, human. The settings on record: for Relative change in chitotriosidase activity from baseline versus placebo: 6 months, all dosage groups, significance not achieved (p=0.4), FIG. 2. The protocol:
This is a placebo-controlled, randomised, double-blinded trial evaluating the response of 3 dose levels of arimoclomol on various pharmacodynamic (PD) biomarkers in blood and cerebrospinal fluid (CSF) as indicators of enhanced glucocerebrosidase (GBA) enzyme activity in GD1 and GD3.
as §1
The primary efficacy endpoint of the trial was the percentage change in serum chitotriosidase activity (marker of macrophage activation) from baseline to 6 months, where baseline was defined as the mean value of the predose visits (Visit 1 and Visit 2).
The primary efficacy endpoint was analysed using an Analysis of Covariance (ANCOVA) model on the ITT population. The log of chitotriosidase activity was used in the analysis. The response variable for ANCOVA model was the log of chitotriosidase activity at 6 months, and the independent variables included IMP dose as randomized (300 mg/day, 600 mg/day, 1200 mg/day, and 0 mg/day [for placebo]) as a continuous variable, GD type, and log of baseline chitotriosidase. Supportive analysis was conducted using the same model but with the dose actually received at Visit 3 following possible dosing adjustment based on PK assessment at Visit 2.

A further series has as its system haemoglobin. In words: Haemoglobin in patients anaemic at baseline, phase 2 trial in Gaucher disease. In kind it is in vivo, human. To be noted: highest dose group (1200 mg/day), time-trend analysis p<0.05, FIG. 5. The protocol:
as §1, §4, §3

With `[O-][n+]1cccc(/C(Cl)=N/OC[C@H](O)CN2CCCCC2)c1` [arimoclomol, (+)-(R)—N-[2-hydroxy-3-(1-piperidinyl)-propoxy]-pyridine-1-oxide-3-carboximidoyl chloride], the Blood-brain barrier passage entry in series [1] was “ability to cross the blood-brain barrier”. Also, in the series with liver size, the “Liver size relative to placebo” value is recorded as “dose-dependent effect; also recorded: Clinically meaningful dose-dependent reductions”. Also, in the series on Gaucher's disease type 1, the “Clinical GD1 severity score” value is “directional dose-dependent reduction”. For the same compound, the “Change from baseline of plasma glycosylsphingosine (lyso-Gb1)” value in series [2] is “trend towards a dose-dependent increase”. Besides, the “Spleen size relative to placebo” value with spleen size is listed as “dose-dependent effect; also recorded: Clinically meaningful dose-dependent reductions”. The “Plasma exposure (AUC)” value in series [3] is reported as “dose-dependent increase in plasma exposure”. Moreover, the figures for the “Relative change in chitotriosidase activity from baseline versus placebo” value in series [4] and in series [4] (listed as Arimoclomol) were “relative reduction in chitotriosidase activity from baseline” and “relative reduction in serum chitotriosidase activity”, respectively. In addition, in series [4] (baseline to 6 months, 300/600/1200 mg/day vs. placebo), the “Change in chitotriosidase activity across treatment groups” value was “lower increase in arimoclomol groups vs. placebo”. Moreover, in the series on haemoglobin, the Haemoglobin over time result is reported as “time-dependent increase in haemoglobin”.
